According to patent US20250179047A1, “5-[7-(3,4-DIHYDRO-1H-ISOQUINOLINE-2-CARBONYL)-1,2,3,4 TETRAHYDROISOQUINOLIN-6-YL]-1H-PYRROLE-3-CARBOXAMIDE DERIVATIVES, PHARMACEUTICAL COMPOSITIONS CONTAINING THEM AND THEIR USES AS PRO-APOPTOTIC AGENTS” (LES LABORATOIRES SERVIER, priority 2022, published 2025):

Assays:
BCL2 WT = BCL2 WT (Homo sapiens (Human), UniProt P10415); assay: TR-FRET competitive binding assay, BCL2 WT; details: Ki determined from IC50, read-out: TR_FRET EKI_Bcl2 WT
Outline: (§1)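 Terbium-labelled N-terminal Halo-fusion BCL2 or BCLXL (E. coli), 0.5 nM, competed against fluorescein-labelled PUMA peptide (2 or 20 nM) for 2 h at 23° C in 50 mM Hepes pH 7.5, 150 mM NaCl, 5% DMSO. TR-FRET 520/495 nm ratio gave IC50 by four-parameter fit; Ki derived from IC50.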

BCL2 G101V [1] = target: BCL2 G101V (Homo sapiens, UniProt P10415, G101V); assay: TR-FRET competitive binding assay, BCL2 G101V; details: BCL2 G101V; Ki determined from IC50; read-out: TR_FRET EKI_Bcl2 G101V
Outline: as §1

BCL2 G101V [2] = assay: TR-FRET competitive binding assay, BCL2 G101V; parameters: species or system human; details: ratio Ki BCL2 G101V / Ki BCL2 WT
Outline: as §1

BCL2 D103Y = BCL2 D103Y (Homo sapiens, UniProt P10415, D103Y); assay: TR-FRET competitive binding assay, BCL2 D103Y; details: Ki determined from IC50, read-out: TR_FRET EKI_Bcl2 D103Y
Outline: as §1

BCLXL WT = BCLXL WT (Homo sapiens (Human), UniProt Q07817); assay: TR-FRET competitive binding assay, BCLXL WT; details: for Ki: BCLXL WT, Ki determined from IC50, read-out: TR_FRET EKI BclxL; for TR_FRET EKI BCLxL/WT selectivty ratio: ratio Ki BCLxL / Ki BCL2 WT
Outline: as §1

KMS-12-PE Bcl-2 WT = assay: In vitro cytotoxicity CellTiter-Glo 48 h, KMS-12-PE Bcl-2 WT; format: cell-based; details: Homo sapiens, KMS-12-PE, C50 = concentration needed to reach 50% of the cellular viability
Outline: (§2)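 CTG luminescence read-out; C50 = concentration reaching 50% cellular viability. Cells: KMS-12-PE expressing Bcl-2 WT or G101V (lentiviral, TagRFP-sorted). 11-pt curve, 48 h, 37 °C/5% CO2.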

KMS-12-PE Bcl-2 G101V = assay: In vitro cytotoxicity CellTiter-Glo 48 h, KMS-12-PE Bcl-2 G101V; format: cell-based; details: for Ratio (G101V/WT): C50 KMS-12-PE Bcl-2 G101V over C50 KMS-12-PE Bcl-2 WT; for IC50: Homo sapiens, KMS-12-PE, 48 h, CellTiter-Glo, C50 = concentration needed to reach 50% of the cellular viability
Outline: as §2

Chain of BCLXL WT (Q07817 other isoform, or with tags, fused parts or gaps): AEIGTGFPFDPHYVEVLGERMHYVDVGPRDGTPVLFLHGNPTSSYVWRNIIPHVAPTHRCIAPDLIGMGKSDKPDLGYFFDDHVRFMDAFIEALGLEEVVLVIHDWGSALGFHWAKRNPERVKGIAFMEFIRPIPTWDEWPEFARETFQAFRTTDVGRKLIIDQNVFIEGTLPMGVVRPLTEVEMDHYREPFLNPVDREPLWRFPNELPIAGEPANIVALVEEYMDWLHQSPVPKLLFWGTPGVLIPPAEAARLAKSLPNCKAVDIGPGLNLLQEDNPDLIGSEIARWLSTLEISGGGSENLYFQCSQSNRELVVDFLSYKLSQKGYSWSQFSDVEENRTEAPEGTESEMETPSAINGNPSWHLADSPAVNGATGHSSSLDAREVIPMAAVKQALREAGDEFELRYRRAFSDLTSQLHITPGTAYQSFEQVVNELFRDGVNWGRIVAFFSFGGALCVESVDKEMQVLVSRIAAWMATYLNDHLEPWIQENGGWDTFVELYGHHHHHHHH

Ki (BCL2 WT)	Ki (BCL2 G101V [1])	TR_FRET EKI G101V/WT selectivty ratio (BCL2 G101V [2])	Ki (BCL2 D103Y)	Ki (BCLXL WT)	TR_FRET EKI BCLxL/WT selectivty ratio (BCLXL WT)	Structure (SMILES)	IC50 (KMS-12-PE Bcl-2 WT)	Ratio (G101V/WT) (KMS-12-PE Bcl-2 G101V)	IC50 (KMS-12-PE Bcl-2 G101V)
0.26 nM	1.5 nM	5.8	0.75 nM	3.9 nM	15.0	Cc1c(N(C(=O)c2cc(-c3cc4c(cc3C(=O)N3Cc5ccccc5C[C@H]3CN3CC[C@@H](F)C3)CN(C(=O)Cc3ccc(OCCC5CCOCC5)cc3)CC4)n(C)c2C)c2ccc(O)cc2)cc(C#N)n1C [Example 79, N-(5-cyano-1,2-dimethylpyrrol-3-yl)-5-(7-{[(3S)-3-{[(3R)-3-fluoropyrrolidin-1-yl]methyl}-3,4-dihydro-1H-isoquinolin-2-yl]carbonyl}-2-(2-{4-[2-(oxan-4-yl)ethoxy]phenyl}acetyl)-3,4-dihydro-1H-isoquinolin-6-yl)-N-(4-hydroxyphenyl)-1,2-dimethylpyrrole-3-carboxamide]	0.0122 µM	4.85	0.0592 µM
0.06 nM	0.3 nM	4.9	0.14 nM	1.2 nM	21.1	Cc1c(N(C(=O)c2cc(-c3cc4c(cc3C(=O)N3Cc5ccccc5C[C@H]3CN3CC[C@@H](F)C3)CN(C(=O)Cc3ccc(OCCN5CCOCC5)cc3F)CC4)n(C)c2C)c2ccc(O)cc2)cc(C#N)n1C [Example 80, N-(5-cyano-1,2-dimethylpyrrol-3-yl)-5-[2-(2-{2-fluoro-4-[2-(morpholin-4-yl)ethoxy]phenyl}acetyl)-7-{[(3S)-3-{[(3R)-3-fluoropyrrolidin-1-yl]methyl}-3,4-dihydro-1H-isoquinolin-2-yl]carbonyl}-3,4-dihydro-1H-isoquinolin-6-yl]-N-(4-hydroxyphenyl)-1,2-dimethylpyrrole-3-carboxamide]	0.0094 µM	5.66	0.0534 µM
0.19 nM	1.2 nM	6.7	0.35 nM	6.3 nM	33.9	Cc1c(N(C(=O)c2cc(-c3cc4c(cc3C(=O)N3Cc5ccccc5C[C@H]3CN3CCCCC3)CN(C(=O)Cc3ccc(OCCN5CCC(F)(F)C5)cc3)CC4)n(C)c2C)c2ccc(O)cc2)cc(C#N)n1C [Example 82, N-(5-cyano-1,2-dimethylpyrrol-3-yl)-5-[2-(2-{4-[2-(3,3-difluoropyrrolidin-1-yl)ethoxy]phenyl}acetyl)-7-{[(3S)-3-(piperidin-1-ylmethyl)-3,4-dihydro-1H-isoquinolin-2-yl]carbonyl}-3,4-dihydro-1H-isoquinolin-6-yl]-N-(4-hydroxyphenyl)-1,2-dimethylpyrrole-3-carboxamide]	0.0095 µM	6.45	0.0572 µM
0.09 nM	0.9 nM	10.9	0.21 nM	9.3 nM	109.4	Cc1c(N(C(=O)c2cc(-c3cc4c(cc3C(=O)N3Cc5ccccc5C[C@H]3CN3CCCCC3)CN(C(=O)Cc3cc(F)c(OCCN5CCOCC5)cc3F)CC4)n(C)c2C)c2ccc(O)cc2)cc(C#N)n1C [Example 83, N-(5-cyano-1,2-dimethylpyrrol-3-yl)-5-[2-(2-{2,5-difluoro-4-[2-(morpholin-4-yl)ethoxy]phenyl}acetyl)-7-{[(3S)-3-(piperidin-1-ylmethyl)-3,4-dihydro-1H-isoquinolin-2-yl]carbonyl}-3,4-dihydro-1H-isoquinolin-6-yl]-N-(4-hydroxyphenyl)-1,2-dimethylpyrrole-3-carboxamide]	0.0125 µM	8.1	0.0958 µM
0.32 nM	1.1 nM	3.3	0.39 nM	9.8 nM	30.6	Cc1c(C(=O)N(c2ccc(O)cc2)c2cnn(C)c2)cc(-c2cc3c(cc2C(=O)N2Cc4ccccc4C[C@H]2C)CN(C(=O)Cc2ccc(OCCC4CCOCC4)cc2)CC3)n1C [Example 85, N-(4-hydroxyphenyl)-1,2-dimethyl-5-(7-{[(3R)-3-methyl-3,4-dihydro-1H-isoquinolin-2-yl]carbonyl}-2-(2-{4-[2-(oxan-4-yl)ethoxy]phenyl}acetyl)-3,4-dihydro-1H-isoquinolin-6-yl)-N-(1-methylpyrazol-4-yl)pyrrole-3-carboxamide]	0.0061 µM	8.42	0.051 µM
0.1 nM	0.6 nM	5.9	0.27 nM	1.7 nM	17.0	Cc1c(N(C(=O)c2cc(-c3cc4c(cc3C(=O)N3Cc5ccccc5C[C@H]3CN3CCCCC3)CN(C(=O)Cc3ccc(OCCN(C)C5CC5)cc3F)CC4)n(C)c2C)c2ccc(O)cc2)cc(C#N)n1C [Example 88, N-(5-cyano-1,2-dimethylpyrrol-3-yl)-5-{2-[2-(4-{2-[cyclopropyl(methyl)amino]ethoxy}-2-fluorophenyl)acetyl]-7-{[(3S)-3-(piperidin-1-ylmethyl)-3,4-dihydro-1H-isoquinolin-2-yl]carbonyl}-3,4-dihydro-1H-isoquinolin-6-yl}-N-(4-hydroxyphenyl)-1,2-dimethylpyrrole-3-carboxamide]	0.0063 µM	4.67	0.0296 µM
0.25 nM	0.8 nM	3.4	0.88 nM	4.5 nM	18.0	Cc1c(C(=O)N(c2ccc(O)cc2)c2ccc3c(cnn3C)c2)cc(-c2cc3c(cc2C(=O)N2Cc4ccccc4C[C@H]2C)CN(C(=O)Cc2ccc(OCCN4CCOCC4)cc2)CC3)n1C [Example 90, N-(4-hydroxyphenyl)-1,2-dimethyl-5-(7-{[(3R)-3-methyl-3,4-dihydro-1H-isoquinolin-2-yl]carbonyl}-2-(2-{4-[2-(morpholin-4-yl)ethoxy]phenyl}acetyl)-3,4-dihydro-1H-isoquinolin-6-yl)-N-(1-methylindazol-5-yl)pyrrole-3-carboxamide]	0.0111 µM	5.92	0.0657 µM
0.03 nM	0.9 nM	30.7	0.11 nM	8.5 nM	303.6	Cc1c(N(C(=O)c2cc(-c3cc4c(cc3C(=O)N3Cc5ccccc5C[C@H]3CN3CCCCC3)CN(C(=O)Cc3ccc(OCCN5CCOCC5)cc3F)CC4)n(C)c2C)c2ccccc2)cc(C#N)n1C [Example 92, N-(5-cyano-1,2-dimethyl-pyrrol-3-yl)-5-[2-[2-[2-fluoro-4-(2-morpholinoethoxy)phenyl]acetyl]-7-[(3S)-3-(1-piperidylmethyl)-3,4-dihydro-1H-isoquinoline-2-carbonyl]-3,4-dihydro-1H-isoquinolin-6-yl]-1,2-dimethyl-N-phenyl-pyrrole-3-carboxamide]	0.0085 µM	11.7	0.0974 µM
0.19 nM	1.1 nM	5.5	0.34 nM	2.4 nM	12.6	Cc1c(N(C(=O)c2cc(-c3cc4c(cc3C(=O)N3Cc5ccccc5C[C@H]3C)CN(C(=O)Cc3ccc(OCCN5CCOC6(CC6)C5)cc3)CC4)n(C)c2C)c2ccc(O)cc2)cc(C#N)n1C [Example 93, N-(5-cyano-1,2-dimethyl-1H-pyrrol-3-yl)-N-(4-hydroxyphenyl)-1,2-dimethyl-5-{7-[(3R)-3-methyl-1,2,3,4-tetrahydroisoquinoline-2-carbonyl]-2-{2-[4-(2-{4-oxa-7-azaspiro[2.5]octan-7-yl}ethoxy)phenyl]acetyl}-1,2,3,4-tetrahydroisoquinolin-6-yl}-1H-pyrrole-3-carboxamide]	0.0053 µM	3.45	0.0182 µM
0.22 nM	1.1 nM	5.0	0.66 nM	3.3 nM	15.0	Cc1c(C(=O)N(c2ccc(O)cc2)c2cc(C#N)n(C(F)F)c2C)cc(-c2cc3c(cc2C(=O)N2Cc4ccccc4C[C@H]2C)CN(C(=O)Cc2ccc(OCCN4CCOCC4)cc2F)CC3)n1C [Example 94, N-[5-cyano-1-(difluoromethyl)-2-methylpyrrol-3-yl]-5-[2-(2-{2-fluoro-4-[2-(morpholin-4-yl)ethoxy]phenyl}acetyl)-7-{[(3R)-3-methyl-3,4-dihydro-1H-isoquinolin-2-yl]carbonyl}-3,4-dihydro-1H-isoquinolin-6-yl]-N-(4-hydroxyphenyl)-1,2-dimethylpyrrole-3-carboxamide]	0.0032 µM	3.31	0.0107 µM
